Results as given in patent US7332631B2, “Fc receptor modulating compounds and compositions” (Trillium Therapeutics Inc., priority 2002, dated 2008).
Several values for one entry are separate records, joined by “and”; a condition that tells them apart may be missing. Equal values may be shown once. Read-outs that look alike come from different tables or passages of the source. Peptide text beside a SMILES is read from it. * marks the point of attachment. Cbz = O=C(OCc1ccccc1)*

Assays:
[1] = molecular target: T1, FcγRIIa (Homo sapiens, UniProt P12318); assay: FACS assay of activation of human platelets by heat aggregated IgG (HAGG), P-Selectin expression; type: cell-based; conditions: for % Inhibition of platelet Activation / inhibition at 500 µg/mL: primary screen, single concentration of inhibitor 500 μg/ml, HAGG 40 μg/ml, several values = repeat determinations; for inhibition at 500 µg/mL: read-out: % Inhibition of platelet Activation
T1 construct: endogenous in cells; host or cells: washed human platelets
T1 sequence (P12318 34-317): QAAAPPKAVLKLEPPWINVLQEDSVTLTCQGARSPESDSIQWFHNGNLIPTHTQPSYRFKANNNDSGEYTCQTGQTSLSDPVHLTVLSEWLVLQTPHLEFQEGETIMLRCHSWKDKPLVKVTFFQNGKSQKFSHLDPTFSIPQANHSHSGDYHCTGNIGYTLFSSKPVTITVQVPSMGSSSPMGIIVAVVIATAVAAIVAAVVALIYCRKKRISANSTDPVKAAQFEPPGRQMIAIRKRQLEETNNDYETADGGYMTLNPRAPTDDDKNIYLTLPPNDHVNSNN
Description: The compounds of Table 1 were screened in a FcγRIIa dependent platelet activation assay and/or aggregation assay where platelets are activated using heat aggregated human immunoglobulin G as an immune complex. Compounds inhibiting this process were then tested for specificity. Note that the platelets were used as the target as the only Fc receptor expressed on these cells is FcγRIIa. In addition, they are very difficult to inhibit and therefore this assists in identifying compounds with reasonable potency.
The compounds of the present invention were initially screened in a rapid FACS screening assay, measuring activation of human platelets by heat aggregated IgG. […] In addition, platelets are very sensitive to a range of stimuli and activate rapidly. Activation is measured by the appearance of the protein P-Selectin on the platelet membrane after exposure to various stimuli. The stimuli were heat aggregated with IgG and as specificity controls, collagen or thrombin.
Specifically, this assay utilises washed platelets and heat aggregated IgG (HAGG) as an immune complex (agonist) to activate and crosslink FcγRIIa. Because this is a primary screen a single concentration of small molecule inhibitor is added to the platelets (final concentration of 500 μg/ml) and allowed to incubate for 30 minutes. Heat Aggregated IgG (HAGG) (40 μg/ml) is then added to the platelets and allowed to incubate for 30 minutes. Paraformaldehyde is added to the platelets for 30 minutes prior to washing. Anti-P-Selectin (FITC conjugated) and Anti-CD41 (PE conjugated) are added and the platelets are then screened by FACS to detect expression of P-Selectin, a marker of platelet activation and CD41, which is expressed by all viable platelets.
In summary, for each compound tested the activity was measured as a function of inhibition of platelet activation and/or platelet aggregation as detailed above. Specificity is defined as specific inhibition of immune complex induced platelet activation but with no effect on arachidonic acid induced activation (and where tested no effect on thrombin, collagen or ADP induced activation).
The compounds were titrated and evaluated for capacity to prevent aggregated IgG induction of p-selectin expression as a measure of activation.

[2] = molecular target: HSA-FcγRIIa (Homo sapiens, UniProt P02768+P12318); assay: ELISA Inhibition Assay: inhibition of human IgG complex binding to plate-bound HSA-FcγRIIa; conditions: HSA-FcγRIIa 5 μg/ml on plate, human IgG complex 0.2 μg/ml
HSA-FcγRIIa, sequence (P02768+P12318 fused): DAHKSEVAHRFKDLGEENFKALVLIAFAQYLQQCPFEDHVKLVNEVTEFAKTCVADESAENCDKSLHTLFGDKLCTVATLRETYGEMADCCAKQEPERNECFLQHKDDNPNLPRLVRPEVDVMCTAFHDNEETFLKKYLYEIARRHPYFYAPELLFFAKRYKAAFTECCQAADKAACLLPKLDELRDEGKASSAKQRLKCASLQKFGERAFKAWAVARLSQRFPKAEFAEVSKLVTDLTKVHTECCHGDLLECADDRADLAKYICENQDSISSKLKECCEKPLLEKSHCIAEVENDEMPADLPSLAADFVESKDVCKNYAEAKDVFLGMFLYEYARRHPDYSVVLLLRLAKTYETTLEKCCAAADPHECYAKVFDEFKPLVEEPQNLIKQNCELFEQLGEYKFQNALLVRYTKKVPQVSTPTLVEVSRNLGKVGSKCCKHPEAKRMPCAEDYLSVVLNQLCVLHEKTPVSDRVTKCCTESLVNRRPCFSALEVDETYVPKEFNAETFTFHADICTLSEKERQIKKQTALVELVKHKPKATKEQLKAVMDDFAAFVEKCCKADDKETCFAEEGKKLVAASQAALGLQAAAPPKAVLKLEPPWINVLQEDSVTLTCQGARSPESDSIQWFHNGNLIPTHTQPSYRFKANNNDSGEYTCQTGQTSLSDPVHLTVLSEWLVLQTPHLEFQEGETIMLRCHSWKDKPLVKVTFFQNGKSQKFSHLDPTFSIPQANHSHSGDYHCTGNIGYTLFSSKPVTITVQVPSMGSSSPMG
Description: The compounds may also be screened using an ELISA inhibition assay to detect the blockade of IgG interaction with FcγRIIa.
Compounds were also screened using an ELISA Inhibition Assay. Human Serum Albumin genetically fused to FcγRIIa (HSA-FcγRIIa) was bound to an ELISA plate at a concentration of 5 μg/ml. The small molecule inhibitors were titrated from a starting concentration of 5 mg/ml and allowed to incubate in the presence of the receptor. A human IgG complex (0.2 μg/ml) is then added to the plate and the extent of inhibition of IgG binding by the small molecule inhibitors was measured using HRP labelled anti-human antibody.

[3] = Solubility remark in the platelet activation screen; type: physicochemical; conditions: printed instead of a % inhibition value
[4] = in vitro testing, summary table, read-out: IC50 Platelet Inhibition
[5] = washed human platelets, HAGG as agonist, several values in a cell = repeat determinations, '(ICnn)' after a '<' bound = inhibition level at that concentration, read-out: Concentration at 50% inhibition of platelet activation by HAGG

Row | Structure (SMILES) | IC50 [1, 4] [µM] | IC50 [1, 5] | IC50 [2] [µM] | other results
1 | CC(NC(=O)CNC(=O)CNC(=O)OCc1ccccc1)C(=O)O (stereo not drawn) [Compound 235] |  |  |  | % Inhibition of platelet Activation [1]: 30% and 49% and 54%
2 | O=C(O)c1cccc(/C=N/c2cc(C(=O)O)cc(C(=O)O)c2)c1 [Compound 114] |  |  |  | inhibition at 500 µg/mL [1]: 8%
3 | N#CCCCSc1cccc(C(=O)O)c1 [Compound 239, 3-(3-Cyanopropylsulfanyl)benzoic acid] | 330 | 330 µM |  | IC50 ELISA [2]: -'ve
4 | O=C(O)c1cccc(C(=O)CSc2ccccc2C(=O)O)c1 [Compound 412, 2-{[2-(3-carboxyphenyl)-2-oxoethyl]thio}benzoic add] | 60 | 60 µM | 7000 | 
5 | O=C(O)c1cccc(/C=N/Nc2cccc(C(=O)O)c2)c1 [Compound 200] |  |  |  | % Inhibition of platelet Activation [1]: 98% and 54% and 95%
6 | O=C(O)c1ccc(SCC(=O)c2ccccc2)cc1 [Compound 384, 4-[(2-oxo-2-phenylethyl)thio]benzoic acid] | 170 | 170 µM | 4800 | 
7 | N#Cc1cccc(C(=O)CSc2ccccc2C(=O)O)c1 [Compound 411, 2-{[2-(3-cyanophenyl)-2-oxoethyl]thio}benzoic acid] | 180 | 180 µM | 7800 | 
8 | C/C(=C(/S)C(=O)NCC(=O)O)c1cccc(O)c1 [Compound 383, [3-(3-Hydroxyphenyl)-2-mercaptobut-2-enoylamino]acetic add] | 280 | 280 µM | 1000 | 
9 | O=C(Nc1cccc(C(=O)O)c1)Nc1cccc(C(=O)O)c1 [Compound 192] |  |  |  | % Inhibition of platelet Activation [1]: 19%; inhibition at 500 µg/mL [1]: 22%
10 | O=C(O)CCNC(=O)OCc1ccccc1 [Compound 233] |  |  |  | % Inhibition of platelet Activation [1]: 74%
11 | O=C(O)c1cccc(/C=N/Nc2cc(Cl)cc(Cl)c2)c1 [Compound 080] |  |  |  | Solubility (word printed in the % inhibition column) [3]: Insoluble
12 | COc1ccc2sc(C(=O)Nc3nnn[nH]3)c(OC(C)C)c2c1[N+](=O)[O-] [Compound 092, 3-isopropoxy-4-nitro-5-methoxy-N-(1H-1,2,3,4-tetrazol-5-yl)-1-benzo[b]thiophene-2-carboxamide] |  | 435 µM |  | melting point: 236 to 238 °C
13 | COc1ccc2sc(C(=O)O)c(OC3CCCCC3)c2c1 [Compound 276, 3-Cyclohexyloxy-5-methoxy-1-benzo[b]thiophene-2-carboxylic acid] |  | < 165 µM and 170 µM |  | melting point: 176 to 177 °C
14 | O=C(O)/C=C/c1ccc(OCCc2ccccc2)cc1 [Compound 299, 4-Phenethyloxycinnamic acid] | 410 | 410 µM | 7200 | 
15 | O=C(O)CCCCCNC(=O)OCc1ccccc1 [Compound 197] | 1300 |  | 9400 | 
16 | O=C(O)c1ccc(/C=N/c2cccc(C(=O)O)c2)cc1 [Compound 081] |  |  |  | inhibition at 500 µg/mL [1]: 83%
17 | O=C(O)c1ccc(C(=O)CSc2ccccc2C(=O)O)cc1 [Compound 410, 2-{[2-(4-carboxyphenyl)-2-oxoethyl]thio}benzoic acid] | 50 | 50 µM | 6900 | 
18 | O=C(O)c1ccc(C(=O)/C=C/c2ccccc2)cc1 [Compound 237, 4-[(2E)-3-phenylprop-2-enoyl]benzoic acid] | 40 | 40 µM | 6200 | 

Row | Structure (SMILES) | IC50 [1, 4] [µM] | IC50 [1, 5] | IC50 [2] [µM] | other results
19 | O=C(/C=C/c1ccccc1C(=O)O)c1ccc[nH]1 [Compound 238, 2-[3-Oxo-3-(1H-pyrrol-2-yl)propenyl]benzoic acid] | 270 | 270 µM | 17500 | 
20 | O=C(O)c1cccc(/C=N/c2cccc(C(=O)O)c2)c1 [Compound 076] |  |  |  | inhibition at 500 µg/mL [1]: 13%
21 | O=C(O)c1cccc([S+]([O-])c2cccc(C(=O)O)c2)c1 [Compound 032, 3-[(3-Carboxyphenyl)sulfinyl]benzenecarboxylic acid] |  | 70 µM | 2800 | IC50 Platelet Inhibition ([1]; in vitro testing, summary table): -'ve
22 | O=C(O)c1cccc(CNc2cccc(C(=O)O)c2)c1 [Compound 100] |  |  |  | inhibition at 500 µg/mL [1]: 7%
23 | O=C(O)c1c(Cl)c2ccc([N+](=O)[O-])cc2[s+]1[O-] (stereo not drawn) [Compound 044, 3-Chloro-6-nitro-1-benzo[b]thiophene-S-oxo-2-carboxylic acid] |  | 230 µM |  | 
24 | O=C(O)c1sc2cc([N+](=O)[O-])ccc2c1Cl [Compound 026, 3-Chloro-6-nitro-1-benzo[b]thiophene-2-carboxylic acid] | 780 | 100 µM | 17500 | 
25 | O=C(O)c1sc2ccccc2c1OCc1ccccc1 [Compound 333, 3-Benzyloxy-1-benzo[b]thiophene-2-carboxylic acid] | 520 | 520 µM | 1600 | 
26 | N#Cc1cccc(C(=O)CSc2ccc(C(=O)O)cc2)c1 [Compound 385, 4-{[2-(3-cyanophenyl)-2-oxoethyl]thio}benzoic acid] | 360 | 360 µM | 6800 | 
27 | C/C(=C1\SC(=S)N(CC(=O)O)C1=O)c1cccc(O)c1 [Compound 374, 5-(-Methyl-3-hydroxybenzylidine)rhodanine-3-acetic acid] | 220 |  | 2000 | 
28 | O=C(O)c1cccc(C(=O)CSCC(=O)c2cccc(C(=O)O)c2)c1 [Compound 292, 1-(3-Carboxyphenyl)-2-[2-(3-carboxyphenyl)-2-oxoethylsulfanyl]ethanone] | 520 | 520 µM | 5600 | 
29 | Cc1c(C(C)(C)C)cc(/C=C(\C#N)C(=O)O)cc1C(C)(C)C [Compound 350] | 290 | 290 µM | 1300 | 
30 | COc1cccc2c(OC(C)C)c(C(=O)Nc3nnn[nH]3)sc12 [Compound 090, 3-isopropoxy-7-methoxy-N-(1H-1,2,3,4-tetrazol-5-yl)-1-benzo[b]thiophene-2-carboxamide] |  | 195 µM and 295 µM |  | 
31 | N#Cc1cccc(C(=O)CSc2cccc(C(=O)O)c2)c1 [Compound 216, 3-[2-(3-Cyanophenyl)-2-oxoethylsulfanyl]benzoic acid] | 250 | 240 µM | 3000 | 
32 | O=C(O)c1cccc(SCC(=O)c2cccc(C(=O)O)c2)c1 [Compound 217, 3-[2-Oxo-2-(3-carboxyphenyl)ethylsulfanyl]benzoic acid] | 320 | 360 µM and > 630 µM | 6100 | 
33 | O=C(O)c1cccc(SCC(=O)c2ccccc2)c1 [Compound 294] | 80 | < 190 µM and 135 µM and 155 µM and 80 µM | 6000 | 
34 | O=C(O)c1ccc2c(c1)C(=O)c1cc(C(=O)O)ccc1-2 [Compound 001] | 610 | 600 µM | 12200 | 
35 | O=C(O)CNC(=O)CNC(=O)OCc1ccccc1 [Compound 236] (Cbz-Gly-Gly-OH) |  |  |  | % Inhibition of platelet Activation [1]: 34% and 33% and 65%
